The source of these data is ChEMBL document CHEMBL1909046, “DrugMatrix in vitro pharmacology data”.

A word on the IC50: it is the concentration that gives 50% inhibition. In general, Ki refers to a dissociation constant, usually derived from enzyme kinetics or from competition with a known ligand.

The target in assay [1] is T1, C-X-C chemokine receptor type 2 (Homo sapiens, UniProt P25025). Also: in other assays of this panel Not Active means under 50% inhibition at 10 µM.
T1 sequence (P25025 whole entry): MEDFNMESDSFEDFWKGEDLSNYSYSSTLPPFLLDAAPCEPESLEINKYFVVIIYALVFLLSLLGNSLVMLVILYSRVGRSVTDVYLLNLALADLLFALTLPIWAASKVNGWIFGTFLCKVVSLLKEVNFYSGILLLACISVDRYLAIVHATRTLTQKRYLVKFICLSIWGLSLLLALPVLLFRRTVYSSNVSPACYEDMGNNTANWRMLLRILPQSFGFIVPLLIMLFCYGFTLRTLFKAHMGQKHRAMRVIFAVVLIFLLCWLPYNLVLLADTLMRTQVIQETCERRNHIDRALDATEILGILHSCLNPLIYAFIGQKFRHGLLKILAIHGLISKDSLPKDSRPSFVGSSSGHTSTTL
Type of assay: cell membranes, Membrane. The conditions noted are these: cho-k1.

Assay [2] concerns the target T2, Cholecystokinin receptor type A (Homo sapiens, UniProt P32238). Also: in other assays of this panel Not Active means under 50% inhibition at 10 µM.
T2 sequence (P32238 whole entry): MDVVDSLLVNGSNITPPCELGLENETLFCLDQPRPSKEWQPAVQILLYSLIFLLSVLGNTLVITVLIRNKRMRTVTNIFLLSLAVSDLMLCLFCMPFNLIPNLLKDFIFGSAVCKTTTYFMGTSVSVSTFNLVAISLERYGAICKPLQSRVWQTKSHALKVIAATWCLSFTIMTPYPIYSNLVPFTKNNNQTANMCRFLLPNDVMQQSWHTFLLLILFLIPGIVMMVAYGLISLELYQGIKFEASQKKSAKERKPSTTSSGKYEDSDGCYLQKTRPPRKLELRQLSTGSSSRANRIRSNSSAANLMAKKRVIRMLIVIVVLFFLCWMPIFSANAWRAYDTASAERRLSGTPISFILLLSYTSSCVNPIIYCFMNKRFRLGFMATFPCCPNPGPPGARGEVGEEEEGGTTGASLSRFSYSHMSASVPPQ
Type of assay: cell membranes, Membrane. To be noted: 1321-n1.

Assay [3] addresses Mitogen-activated protein kinase 14 (Homo sapiens, UniProt Q16539). On the set-up: species or system Escherichia coli.
Assay [4] concerns the target T3, Polyunsaturated fatty acid lipoxygenase ALOX15 (Oryctolagus cuniculus, UniProt P12530).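 Also: inhibition of 15-lipoxygenase enzyme activity measured with linoleic acid as the substrate; in other assays of this panel Not Active means under 50% inhibition at 10 µM.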
T3 sequence (P12530 whole entry): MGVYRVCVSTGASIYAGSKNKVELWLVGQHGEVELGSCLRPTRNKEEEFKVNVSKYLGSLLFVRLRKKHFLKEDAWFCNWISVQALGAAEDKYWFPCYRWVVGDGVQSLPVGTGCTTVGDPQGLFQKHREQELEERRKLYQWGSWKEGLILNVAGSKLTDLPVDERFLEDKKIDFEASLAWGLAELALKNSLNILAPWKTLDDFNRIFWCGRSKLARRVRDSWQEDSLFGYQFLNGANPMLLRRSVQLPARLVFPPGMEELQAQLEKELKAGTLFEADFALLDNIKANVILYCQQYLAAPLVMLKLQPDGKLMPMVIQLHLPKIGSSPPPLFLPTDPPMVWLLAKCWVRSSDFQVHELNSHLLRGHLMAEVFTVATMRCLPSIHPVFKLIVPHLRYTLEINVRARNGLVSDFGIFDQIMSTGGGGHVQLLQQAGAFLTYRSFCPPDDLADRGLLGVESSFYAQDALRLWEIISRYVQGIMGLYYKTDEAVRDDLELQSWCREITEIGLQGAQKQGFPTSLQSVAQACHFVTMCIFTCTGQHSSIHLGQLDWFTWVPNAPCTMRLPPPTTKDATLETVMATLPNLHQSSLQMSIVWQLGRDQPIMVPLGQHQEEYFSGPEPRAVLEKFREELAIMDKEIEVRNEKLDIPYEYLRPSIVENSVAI
The assay can be described thus: biochemical. Type of assay: tissue-based, Reticulocytes.

Assay [5] concerns the target Sigma non-opioid intracellular receptor 1 (Homo sapiens, UniProt Q99720). The assay can be described thus: DRUGMATRIX: Sigma1 radioligand binding (ligand: [3H] Haloperidol). Type of assay: cell membranes, Jurkat, Membrane. To be noted: Not Active = under 50% inhibition at 10 µM.
Assay [6] addresses Estrogen receptor beta (Homo sapiens, UniProt Q92731). The conditions noted are these: sf9.
Assay [7] concerns the target Insulin receptor (Rattus norvegicus, UniProt P15127). Type of assay: cell membranes, Wistar, Liver, Membrane. Also: in other assays of this panel Not Active means under 50% inhibition at 10 µM.

Mitogen-activated protein kinase 14, sequence (Q16539 whole entry): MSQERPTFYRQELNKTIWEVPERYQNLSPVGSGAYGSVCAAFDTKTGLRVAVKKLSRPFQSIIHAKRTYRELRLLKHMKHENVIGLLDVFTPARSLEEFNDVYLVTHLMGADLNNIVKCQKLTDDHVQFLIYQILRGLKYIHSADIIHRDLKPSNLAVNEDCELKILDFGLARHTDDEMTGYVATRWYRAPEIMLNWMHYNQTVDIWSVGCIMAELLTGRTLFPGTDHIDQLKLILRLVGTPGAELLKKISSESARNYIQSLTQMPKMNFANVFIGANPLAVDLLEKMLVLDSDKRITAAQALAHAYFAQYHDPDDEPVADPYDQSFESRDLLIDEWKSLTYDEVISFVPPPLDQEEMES
Insulin receptor, sequence (P15127 27-759 limits assumed): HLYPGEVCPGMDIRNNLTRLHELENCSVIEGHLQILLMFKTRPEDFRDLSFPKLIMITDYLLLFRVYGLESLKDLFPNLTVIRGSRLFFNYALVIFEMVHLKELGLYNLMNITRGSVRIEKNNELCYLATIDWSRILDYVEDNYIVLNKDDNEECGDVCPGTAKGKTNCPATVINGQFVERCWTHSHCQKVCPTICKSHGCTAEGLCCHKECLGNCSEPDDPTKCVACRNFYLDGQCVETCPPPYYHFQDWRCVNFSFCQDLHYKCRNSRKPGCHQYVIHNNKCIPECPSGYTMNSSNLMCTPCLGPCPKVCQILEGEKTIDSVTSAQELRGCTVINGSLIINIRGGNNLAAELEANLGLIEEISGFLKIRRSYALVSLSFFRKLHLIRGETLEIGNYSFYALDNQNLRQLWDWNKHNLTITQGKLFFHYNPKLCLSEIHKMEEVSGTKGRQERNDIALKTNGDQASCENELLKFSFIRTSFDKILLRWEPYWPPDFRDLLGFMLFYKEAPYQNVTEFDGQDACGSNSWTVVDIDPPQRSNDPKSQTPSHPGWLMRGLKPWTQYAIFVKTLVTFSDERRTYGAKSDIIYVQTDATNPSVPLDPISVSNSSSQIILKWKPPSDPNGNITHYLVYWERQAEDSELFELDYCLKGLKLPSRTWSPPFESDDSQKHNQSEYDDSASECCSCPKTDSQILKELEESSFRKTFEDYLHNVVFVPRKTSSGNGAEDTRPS
Insulin receptor, sequence (P15127 764-1383 limits assumed): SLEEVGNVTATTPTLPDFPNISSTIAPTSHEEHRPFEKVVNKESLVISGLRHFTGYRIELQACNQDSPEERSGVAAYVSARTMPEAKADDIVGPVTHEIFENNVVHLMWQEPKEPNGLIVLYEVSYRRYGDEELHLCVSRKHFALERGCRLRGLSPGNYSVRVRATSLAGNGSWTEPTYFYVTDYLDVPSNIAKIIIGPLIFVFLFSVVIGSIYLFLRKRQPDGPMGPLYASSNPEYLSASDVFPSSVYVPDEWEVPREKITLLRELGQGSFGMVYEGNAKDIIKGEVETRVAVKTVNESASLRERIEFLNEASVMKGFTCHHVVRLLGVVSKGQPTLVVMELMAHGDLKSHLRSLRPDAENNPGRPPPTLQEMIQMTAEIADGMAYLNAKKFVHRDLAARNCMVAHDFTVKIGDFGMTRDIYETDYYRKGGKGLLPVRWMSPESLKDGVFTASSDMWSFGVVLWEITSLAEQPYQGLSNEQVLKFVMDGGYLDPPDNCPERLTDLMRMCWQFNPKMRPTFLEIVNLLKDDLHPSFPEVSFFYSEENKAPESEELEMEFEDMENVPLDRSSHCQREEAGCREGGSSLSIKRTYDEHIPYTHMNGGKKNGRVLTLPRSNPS
Sigma non-opioid intracellular receptor 1, sequence (Q99720 whole entry): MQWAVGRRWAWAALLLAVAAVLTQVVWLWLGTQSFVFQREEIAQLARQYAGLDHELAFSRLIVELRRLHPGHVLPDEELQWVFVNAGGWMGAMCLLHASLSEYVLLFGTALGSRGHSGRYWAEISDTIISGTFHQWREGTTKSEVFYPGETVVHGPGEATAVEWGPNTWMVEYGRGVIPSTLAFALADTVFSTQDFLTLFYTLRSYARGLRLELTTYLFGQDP
Estrogen receptor beta, sequence (Q92731 whole entry): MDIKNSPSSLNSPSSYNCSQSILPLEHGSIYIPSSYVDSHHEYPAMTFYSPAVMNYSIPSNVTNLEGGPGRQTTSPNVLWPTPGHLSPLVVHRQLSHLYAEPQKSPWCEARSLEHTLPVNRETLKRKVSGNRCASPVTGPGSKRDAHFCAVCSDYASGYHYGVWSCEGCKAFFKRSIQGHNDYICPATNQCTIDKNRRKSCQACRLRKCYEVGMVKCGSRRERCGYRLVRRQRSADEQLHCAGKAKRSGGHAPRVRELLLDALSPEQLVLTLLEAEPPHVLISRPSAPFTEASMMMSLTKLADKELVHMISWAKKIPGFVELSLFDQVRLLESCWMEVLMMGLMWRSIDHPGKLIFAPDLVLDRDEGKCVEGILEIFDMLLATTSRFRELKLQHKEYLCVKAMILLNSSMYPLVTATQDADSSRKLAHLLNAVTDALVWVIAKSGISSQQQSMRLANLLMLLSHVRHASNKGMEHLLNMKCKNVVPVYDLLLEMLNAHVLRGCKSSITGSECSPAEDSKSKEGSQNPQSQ

In the case of `CC(C)[C@H]1C(=O)N2CCC[C@H]2[C@]2(O)O[C@](NC(=O)[C@@H]3C=C4c5cccc6[nH]cc(c56)C[C@H]4N(C)C3)(C(C)C)C(=O)N12` [ERGOCORNINE], the IC50 entry in assay [1], in assay [2], in assay [3], in assay [4] (reticulocytes), in assay [5] (jurkat) and in assay [6] was “Not Active” throughout. Further, the 50% inhibitory concentration (IC50) result in assay [7] was “Not Active”.

Take `CN(C)CCCN1c2ccccc2Sc2ccccc21` [PROMAZINE]: the IC50 result in assay [1] is “Not Active”; in assay [2] it was “Not Active”; in assay [3], “Not Active”; in assay [4] (reticulocytes) it was “Not Active”; in assay [5] (read-out: IC50), 271 nM; in assay [6], “Not Active”. The half-inhibitory concentration (IC50) entry in assay [7] is on record as “Not Active”. In addition, the inhibitory constant (Ki) in assay [5] (read-out: Ki) was 114 nM.

Consider `CCOC(=O)C1=C(COCCN)NC(C)=C(C(=O)OC)C1c1ccccc1Cl` (stereo not drawn) [AMLODIPINE], for which the IC50 entry in assay [1], in assay [2], in assay [3], in assay [4] (reticulocytes), in assay [5] (jurkat) and in assay [6] was “Not Active” each time. Besides, in assay [7], the concentration for half-maximal inhibition (IC50) result is given as “Not Active”.

As for LEAD (II) ACETATE, the half-maximal inhibitory concentration (IC50) result in assay [1], in assay [2], in assay [3], in assay [4] (reticulocytes), in assay [5] (jurkat) and in assay [6] was “Not Active” each time. For the same compound, in assay [7], the half-inhibitory concentration (IC50) entry was “Not Active”. The Ki result in assay [1], in assay [2], in assay [3], in assay [4] (reticulocytes), in assay [5] (jurkat) and in assay [6] was “Not Active” in each case. Also, the inhibition constant Ki entry in assay [7] was “Not Active”.

`CCCC1O[C@@H]2C[C@H]3[C@@H]4CCC5=CC(=O)C=C[C@]5(C)[C@H]4[C@@H](O)C[C@]3(C)[C@]2(C(=O)CO)O1` (stereo partly drawn) [BUDESONIDE]: the IC50 entry in assay [1], in assay [2], in assay [3], in assay [4] (reticulocytes), in assay [5] (jurkat) and in assay [6] was “Not Active” in each case. The 50% inhibitory concentration (IC50) entry in assay [7] is reported as “Not Active”.

In the case of `CC1Cc2ccccc2N1NC(=O)c1ccc(Cl)c(S(N)(=O)=O)c1` (stereo not drawn) [INDAPAMIDE], the 50% inhibitory concentration (IC50) entry in assay [1] is “Not Active”; in assay [2], “Not Active”; in assay [3], “Not Active”; in assay [4] (read-out: IC50) it was 2920 nM; in assay [5] (jurkat), “Not Active”; in assay [6] it was “Not Active”. Besides, the 50% inhibitory concentration (IC50) result in assay [7] is “Not Active”.

Turning to `Cc1ccccc1N1C(=O)c2cc(S(N)(=O)=O)c(Cl)cc2NC1C` (stereo not drawn) [METOLAZONE], the IC50 entry in assay [1], in assay [2], in assay [3], in assay [4] (reticulocytes), in assay [5] (jurkat) and in assay [6] was “Not Active” each time. Moreover, the half-inhibitory concentration (IC50) entry in assay [7] is on record as “Not Active”.

As to `C1CCC(C(CC2CCCCN2)C2CCCCC2)CC1` (stereo not drawn) [PERHEXILINE], the 50% inhibitory concentration (IC50) result in assay [1] was “Not Active”; in assay [2] it was “Not Active”; in assay [3], “Not Active”; in assay [4] (reticulocytes), “Not Active”; in assay [5] (read-out: IC50), 2600 nM; in assay [6], “Not Active”. Besides, in assay [7], the IC50 result was “Not Active”. Further, the Ki in assay [5] (read-out: Ki) is 1090 nM.

For `CC(C)CN(C[C@@H](O)[C@H](Cc1ccccc1)NC(=O)O[C@H]1CCOC1)S(=O)(=O)c1ccc(N)cc1`, the half-maximal inhibitory concentration (IC50) entry in assay [1], in assay [2], in assay [3], in assay [4] (reticulocytes), in assay [5] (jurkat) and in assay [6] was “Not Active” each time. Further, the IC50 result in assay [7] is reported as “Not Active”.

`O=c1[nH]c(=O)n([C@H]2C[C@H](O)[C@@H](CO)O2)cc1I` [IDOXURIDINE]: the concentration for half-maximal inhibition (IC50) result in assay [1], in assay [2], in assay [3], in assay [4] (reticulocytes), in assay [5] (jurkat) and in assay [6] was “Not Active” each time. In addition, in assay [7], the IC50 entry was “Not Active”.

On to CADMIUM ACETATE, for which the IC50 result in assay [1], in assay [2], in assay [3], in assay [4] (reticulocytes), in assay [5] (jurkat) and in assay [6] was “Not Active” in each case. For the same compound, the IC50 entry in assay [7] is “Not Active”. Moreover, the Ki entry in assay [1], in assay [2], in assay [3], in assay [4] (reticulocytes), in assay [5] (jurkat) and in assay [6] was “Not Active” each time. Also, the Ki entry in assay [7] is “Not Active”.

`CC(C)[C@@]1(NC(=O)[C@@H]2C[C@@H]3c4cccc5[nH]cc(c45)C[C@H]3N(C)C2)O[C@@]2(O)[C@@H]3CCCN3C(=O)[C@H](Cc3ccccc3)N2C1=O.CS(=O)(=O)O` [DIHYDROERGOCRISTINE MESYLATE]: the half-inhibitory concentration (IC50) entry in assay [1], in assay [2], in assay [3], in assay [4] (reticulocytes), in assay [5] (jurkat) and in assay [6] was “Not Active” in each case. The concentration for half-maximal inhibition (IC50) result in assay [7] is recorded as “Not Active”.

For LIPOPOLYSACCHARIDE E. COLI O55:B5, the IC50 result in assay [1] is “Not Active”; in assay [2] it was “Not Active”; in assay [3] (read-out: IC50) it was 60.6 nM; in assay [4] (reticulocytes), “Not Active”; in assay [5] (jurkat), “Not Active”; in assay [6] it was “Not Active”. Further, the IC50 entry in assay [7] was “Not Active”. In addition, the inhibitory constant (Ki) entry in assay [1], in assay [2], in assay [4] (reticulocytes), in assay [5] (jurkat), in assay [6] and in assay [7] was “Not Active” each time.

With `Nc1c(Br)cc(Br)cc1CN[C@H]1CC[C@H](O)CC1` [AMBROXOL], the IC50 result in assay [1], in assay [2], in assay [3], in assay [4] (reticulocytes), in assay [5] (jurkat) and in assay [6] was “Not Active” in each case. Also, the IC50 entry in assay [7] is on record as “Not Active”.

With `CCC(C)n1ncn(-c2ccc(N3CCN(c4ccc(OCC5COC(Cn6cncn6)(c6ccc(Cl)cc6Cl)O5)cc4)CC3)cc2)c1=O` (stereo not drawn) [ITRACONAZOLE], the IC50 result in assay [1], in assay [2], in assay [3], in assay [4] (reticulocytes), in assay [5] (jurkat) and in assay [6] was “Not Active” each time. Besides, the concentration for half-maximal inhibition (IC50) result in assay [7] is on record as “Not Active”.

For the compound `Cc1c(C)c2c(c(C)c1O)CC[C@@](C)(CCC[C@H](C)CCC[C@H](C)CCCC(C)C)O2` [ALPHA-TOCOPHEROL], the IC50 entry in assay [1], in assay [2], in assay [3], in assay [4] (reticulocytes), in assay [5] (jurkat) and in assay [6] was “Not Active” throughout. For the same compound, the half-maximal inhibitory concentration (IC50) entry in assay [7] was “Not Active”.

For the compound `Cc1cc(C(C#N)c2ccc(Cl)cc2)c(Cl)cc1NC(=O)c1cc(I)cc(I)c1O` (stereo not drawn) [CLOSANTEL], the half-maximal inhibitory concentration (IC50) result in assay [1] was “Not Active”; in assay [2] it was “Not Active”; in assay [3] (read-out: IC50) it was 656 nM; in assay [4] (reticulocytes), “Not Active”; in assay [5] (jurkat) it was “Not Active”; in assay [6], “Not Active”. In assay [7], the IC50 result is listed as “Not Active”.

Turning to `CNNCc1ccc(C(=O)NC(C)C)cc1` [PROCARBAZINE], the IC50 result in assay [1], in assay [2], in assay [3], in assay [4] (reticulocytes), in assay [5] (jurkat) and in assay [6] was “Not Active” each time. Moreover, the half-maximal inhibitory concentration (IC50) entry in assay [7] was “Not Active”.
